Here are results for 13 molecules from DBAASP.

Converted amounts (≈) assume the structure as drawn. A value given as a limit tells only on which side of the number the result lay.

Some test systems named below: Streptococcus uberis; Bacillus cereus; Micrococcus luteus; Enterococcus faecalis; Staphylococcus aureus; Leuconostoc lactis; Escherichia coli; Listeria innocua; Pasteurella multocida.
Holding throughout (test): ≥ marks a high value that may be exact or a test limit, other limits are often not marked, values filed in µg/mL are converted to µM
In test [1] the test system is Escherichia coli DSM 1103.
For test [2], the system named is Staphylococcus aureus DSM 1104.
Test [3] relates to Pseudomonas aeruginosa DSM 1117.
The subject of test [4] is Staphylococcus epidermidis DSM 1798.
The subject of test [5] is Mycobacterium tuberculosis H37Rv.
Test [6] deals with Pseudomonas aeruginosa Ps4.
In test [7] the test system is Staphylococcus epidermidis.
In test [8] the test system is Pseudomonas aeruginosa ATCC 27853.
Test [9] relates to Corynebacterium glutamicum ATCC 13032.
Test [10] relates to Staphylococcus aureus ATCC 9144.
For test [11], the system named is Escherichia coli ATCC 25922.
Test [12] relates to Salmonella enterica subsp. enterica serovar Typhimurium ATCC 14028.
Test [13] relates to Staphylococcus aureus ATCC 29213.
For test [14], the system named is Klebsiella aerogenes ATCC 13048.
For test [15], the system named is Bacillus cereus ATCC 11778.

As a reminder, the MIC is the smallest concentration in the dilution series that meets the test's criterion for growth inhibition. A higher MIC goes with a less susceptible organism. For the molecule `CC[C@H](C)[C@H](NC(=O)CNC(=O)[C@@H](NC(=O)[C@H](C)N)C(C)C)C(=O)NCC(=O)N[C@@H](C)C(=O)N[C@@H](CC(C)C)C(=O)N[C@@H](Cc1ccccc1)C(=O)N[C@@H](CC(C)C)C(=O)NCC(=O)N[C@@H](Cc1ccccc1)C(=O)N[C@@H](CC(C)C)C(=O)NCC(=O)N[C@@H](C)C(=O)N[C@@H](C)C(=O)NCC(=O)N[C@@H](CO)C(=O)N[C@H](C(=O)N[C@@H](CCSC)C(=O)NCC(=O)N[C@@H](C)C(=O)N[C@@H](CCCN=C(N)N)C(=O)N[C@@H](CO)C(N)=O)[C@@H](C)O` [AVGIGALFLGFLGAAGSTMGARS], the minimal inhibitory concentration (MIC) in [1], in test [2], in test [3] and in test [4] was not below 117 µM throughout.
`CC(C)C[C@H](NC(=O)[C@H](Cc1c[nH]c2ccccc12)NC(=O)[C@H](Cc1c[nH]c2ccccc12)NC(=O)[C@H](CCCN=C(N)N)NC(=O)[C@H](CO)NC(=O)[C@H](CC(C)C)NC(=O)[C@H](CCCCN)NC(=O)[C@H](CCCCN)NC(=O)[C@@H](NC(=O)[C@H](C)N)C(C)C)C(=O)N[C@@H](CCCN=C(N)N)C(=O)N[C@@H](Cc1c[nH]c2ccccc12)C(=O)N[C@@H](Cc1c[nH]c2ccccc12)C(=O)N[C@@H](CCCCN)C(=O)N[C@@H](CCCCN)C(=O)O` [AVKKLSRWWLRWWKK] registered an MIC in test [5] of 18.1 µM (≈ 37.5 µg/mL).
In turn, `CC[C@H](C)[C@H](NC(=O)[C@H](CC(N)=O)NC(=O)[C@H](CCCN=C(N)N)NC(=O)[C@H](C)NC(=O)[C@H](Cc1c[nH]c2ccccc12)NC(=O)[C@@H](N)Cc1ccccc1)C(=O)N[C@@H](CCCN=C(N)N)C(=O)N[C@@H](CCCCN)C(=O)N[C@H](C(=O)N[C@@H](CCCN=C(N)N)C(N)=O)C(C)C` [FWARNIRKVR] came in with an MIC in test [6] not below 186 µM.
In test [6], `CC[C@H](C)[C@H](NC(=O)[C@H](CC(N)=O)NC(=O)[C@H](CCCN=C(N)N)NC(=O)[C@H](CC(C)C)NC(=O)[C@H](Cc1c[nH]c2ccccc12)NC(=O)[C@@H](N)Cc1ccccc1)C(=O)N[C@@H](CCCN=C(N)N)C(=O)N[C@@H](CCCCN)C(=O)N[C@H](C(=O)N[C@@H](CCCN=C(N)N)C(N)=O)C(C)C` [FWLRNIRKVR] returned an MIC not below 180 µM.
Same read-out and setting: under `CC[C@H](C)[C@H](NC(=O)[C@H](CCCN=C(N)N)NC(=O)[C@@H](NC(=O)[C@H](CCCN=C(N)N)NC(=O)[C@H](CCC(N)=O)NC(=O)[C@H](Cc1c[nH]c2ccccc12)NC(=O)[C@@H](N)Cc1ccccc1)[C@@H](C)CC)C(=O)N[C@@H](CCCN=C(N)N)C(=O)N[C@@H](CCCN=C(N)N)C(N)=O` [FWQRIRIRR] stands not below 188 µM.
On the same count and under the same terms, under `CC[C@H](C)[C@H](NC(=O)[C@H](CC(N)=O)NC(=O)[C@H](CCCN=C(N)N)NC(=O)[C@H](CCC(N)=O)NC(=O)[C@H](Cc1c[nH]c2ccccc12)NC(=O)[C@@H](N)Cc1ccccc1)C(=O)N[C@@H](CCCN=C(N)N)C(=O)N[C@@H](CCCCN)C(=O)N[C@H](C(=O)N[C@@H](CO)C(N)=O)C(C)C` [FWQRNIRKVS] stands not below 187 µM; under `CC[C@H](C)[C@H](NC(=O)[C@H](CCCN=C(N)N)NC(=O)[C@H](Cc1c[nH]c2ccccc12)NC(=O)[C@H](CC(N)=O)NC(=O)[C@H](CCCN=C(N)N)NC(=O)[C@H](CCC(N)=O)NC(=O)[C@H](Cc1c[nH]c2ccccc12)NC(=O)[C@@H](N)Cc1ccccc1)C(=O)N[C@@H](CCCN=C(N)N)C(=O)N[C@@H](CCCN=C(N)N)C(N)=O` [FWQRNWRIRR], not below 165 µM.
Consider `CC[C@H](C)[C@H](NC(=O)[C@H](C)NC(=O)[C@@H]1CCCN1C(=O)[C@@H](NC(=O)[C@@H](NC(=O)[C@H](Cc1cnc[nH]1)NC(=O)[C@H](C)NC(=O)[C@H](C)NC(=O)[C@@H](NC(=O)[C@H](CCCCN)NC(=O)[C@H](C)NC(=O)[C@H](CC(C)C)NC(=O)[C@@H](NC(=O)CNC(=O)[C@H](Cc1ccccc1)NC(=O)[C@H](CC(C)C)NC(=O)CN)C(C)C)C(C)C)C(C)C)C(C)C)C(=O)N[C@@H](C)C(=O)N[C@@H](CCC(=O)O)C(=O)N[C@@H](Cc1cnc[nH]1)C(=O)N[C@@H](Cc1ccccc1)C(=O)O` [GLFGVLAKVAAHVVPAIAEHF], for which the MIC is not below 46.6 µM against Streptococcus uberis; not below 46.6 µM in the test with Bacillus cereus; not below 46.6 µM in the test on Micrococcus luteus; not below 46.6 µM in test [7]; not below 46.6 µM with Enterococcus faecalis; more than 46.6 µM against Staphylococcus aureus. Also, the minimum inhibitory concentration (MIC) is 23.3 µM (≈ 50 µg/mL) against Leuconostoc lactis, more than 46.6 µM in the test on Escherichia coli, not below 46.6 µM in the test with Listeria innocua and not below 46.6 µM against Pasteurella multocida.
As to `CC[C@H](C)[C@H](NC(=O)[C@H](C)NC(=O)CNC(=O)[C@H](C)NC(=O)[C@H](CCCN=C(N)N)NC(=O)[C@H](CO)NC(=O)[C@H](C)NC(=O)[C@H](CCSC)NC(=O)CN)C(=O)N[C@@H](C)C(=O)NCC(=O)N[C@@H](CCCN=C(N)N)C(=O)N[C@H](C(=O)N[C@@H](C)C(=O)N[C@@H](CCCN=C(N)N)C(=O)N[C@H](C(=O)N[C@@H](C)C(=O)N[C@@H](CC(C)C)C(=O)N[C@@H](CCCN=C(N)N)C(=O)N[C@@H](C)C(=O)N[C@@H](CC(C)C)C(N)=O)C(C)C)[C@@H](C)CC` [GMASRAGAIAGRIARVALRAL], the MIC was 7 µM (≈ 14.6 µg/mL) in test [1], 4 µM (≈ 8.32 µg/mL) in test [2], not below 113 µM in [3] and 2 µM (≈ 4.16 µg/mL) in test [4].
`CC(C)[C@H](NC(=O)[C@@H](NC(=O)[C@H](CCCN=C(N)N)NC(=O)[C@H](CCCN=C(N)N)NC(=O)[C@H](Cc1c[nH]c2ccccc12)NC(=O)[C@H](Cc1c[nH]c2ccccc12)NC(=O)CN)[C@@H](C)O)C(=O)N[C@@H](CCCN=C(N)N)C(=O)N[C@@H](CCCCN)C(N)=O` [GWWRRTVRK]: the MIC in [8] is 25 µM (≈ 31.1 µg/mL); in test [9] it was 3.1 µM (≈ 3.85 µg/mL); in test [10] it was not below 100 µM; in test [11], 50 µM (≈ 62.2 µg/mL).
As to `CC[C@H](C)[C@H](N)C(=O)N[C@@H](CC(C)C)C(=O)NCC(=O)N[C@@H](CCCCN)C(=O)N[C@@H](CC(C)C)C(=O)N[C@@H](Cc1c[nH]c2ccccc12)C(=O)N[C@@H](CCC(=O)O)C(=O)NCC(=O)N[C@@H](CC(C)C)C(=O)N[C@@H](CCCCN)C(=O)N[C@@H](CO)C(=O)N[C@@H](CC(C)C)C(=O)N[C@@H](Cc1ccccc1)C(N)=O` [ILGKLWEGLKSLF], the minimal inhibitory concentration (MIC) in test [12] is 66.5 µM (≈ 99.9 µg/mL); in test [13], 33.2 µM (≈ 50 µg/mL); in test [14], not below 66.5 µM; in test [15], not below 66.5 µM; in test [11], 33.2 µM (≈ 50 µg/mL).
Turning to `CC[C@H](C)[C@H](NC(=O)[C@H](CCCN=C(N)N)NC(=O)CNC(=O)[C@H](C)NC(=O)[C@@H](NC(=O)[C@H](CCCN=C(N)N)NC(=O)[C@H](C)NC(=O)[C@@H](NC(=O)[C@H](CCCN=C(N)N)NC(=O)CNC(=O)[C@H](C)NC(=O)[C@@H](NC(=O)[C@H](CCCN=C(N)N)NC(=O)[C@H](C)NC(=O)[C@@H](NC(=O)[C@H](CCCN=C(N)N)NC(=O)CNC(=O)[C@H](C)NC(=O)[C@@H](NC(=O)[C@@H](N)CCCN=C(N)N)[C@@H](C)CC)[C@@H](C)CC)[C@@H](C)CC)[C@@H](C)CC)[C@@H](C)CC)C(=O)N[C@@H](C)C(N)=O` [RIAGRIARIAGRIARIAGRIA], the MIC in [1] amounted to 6 µM (≈ 13.4 µg/mL); in test [2], 3 µM (≈ 6.69 µg/mL); in test [3], 26 µM (≈ 58 µg/mL); in [4], 2 µM (≈ 4.46 µg/mL).
The matching figures for `CC(C)C[C@H](NC(=O)[C@H](CCCN=C(N)N)NC(=O)[C@@H](NC(=O)[C@@H]1CCCN1C(=O)[C@@H]1CCCN1C(=O)[C@@H]1CCCN1C(=O)[C@H](CC(C)C)NC(=O)[C@H](CCCN=C(N)N)NC(=O)[C@@H](NC(=O)[C@@H]1CCCN1C(=O)[C@@H]1CCCN1C(=O)[C@@H]1CCCN1C(=O)[C@H](CC(C)C)NC(=O)[C@H](CCCN=C(N)N)NC(=O)[C@@H](N)C(C)C)C(C)C)C(C)C)C(=O)N1CCC[C@H]1C(=O)N1CCC[C@H]1C(=O)N1CCC[C@H]1C(=O)O` [VRLPPPVRLPPPVRLPPP]: not below 122 µM, not below 122 µM, not below 122 µM and not below 122 µM.
